Reference: patent publication US8691187B2, “Imaging agents for detecting neurological disorders” (Eli Lilly and Company, priority 2009, dated 2014)

Legend:
Aβ plaques = target: T1, Aβ plaques (Homo sapiens, UniProt P05067); experiment: Fluorescent compound staining on human AD brain sections (β-amyloid IHC double labeling); assay type: binding; conditions: 100 uM compound; for Brain Section Staining: Ab (amyloid): qualitative rating + to ++++ or words
T1 construct: Native forms of tau (various isoforms, hyperphosphorylated) and amyloid aggregates are present in brain sections; from tissue; host or cells: human AD brain, frozen frontal lobe sections
Excerpt: (§1) Native forms of tau (various isoforms, hyperphosphorylated) and amyloid aggregates are present in brain sections and therefore preferred for compound testing. Using the self-fluorescence of a test compound can give an indication of whether the compound binds to tau tangles/PHFs and/or amyloid plaques. This is further confirmed by immunostaining with Aβ and tau antibodies and overlaying the images. […] However, it is possible to “rate” the signal strength qualitatively and distinguish compounds that show binding to these aggregates.
(§2) In one of the embodiments of the present invention, the self-fluorescence of the compound of formula (I) is used to determine whether the compound binds to tau/amyloid in the brain sections and to give it a qualitative rating. The next step is to proceed to the autoradiography using different brain types for further evaluation and quantitation.
(§3) Tau fluorescent compounds staining on human brain sections (Double or triple labeled with tau and β-amyloid Immunohistochemistry (IHC))
(§4) Serial sections (6 μm thick) from OCT-embedded frozen blocks of front lobe were used for staining (OCT—optimal cutting temperature). After fixation and quenching of autofluorescence, tissue sections were incubated with in 100 μM of tau compound in 50% ethanol PBS for 60 min. Then sections were dipped briefly into water, rinsed in PBS, blocked with 5% normal horse serum in PBS for 1 hour at room temperature. After blocking, the tissue was incubated with tau or β-amyloid primary antibody at 4° C. overnight in a humid chamber. Next day, the sections were washed with PBS and then incubated with secondary antibody for 1 hour.

AD brain sections = experiment: Fluorescent compound staining on human AD brain sections (self-fluorescence, overall binding); conditions: for Brain Section Staining: fluorescence: Table 1 quinolines, 100 uM compound; for binding of fluorescent compound to AD brain sections confirmed by immunostaining with tau or Aβ antibodies: figure legends, double labeling at 100 uM
Excerpt: as §1, §2, §3, §4

tau aggregates = experiment: Fluorescent compound staining on human AD brain sections (tau IHC double labeling); assay type: binding; conditions: 100 uM compound, qualitative rating + to ++++ or words
Excerpt: as §1, §2, §3, §4

T1 sequence (P05067 672-713 limits assumed): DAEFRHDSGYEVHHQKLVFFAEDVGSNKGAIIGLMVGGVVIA

SMILES: CN(C)CCNc1cc(-c2ccccc2)nc2ccccc12 [Compound T048]
- Brain Section Staining: Ab (amyloid) (Aβ plaques; Table 1 quinolines): binds to Ab (amyloid) (100 uM)

SMILES: c1ccc2nc(-c3ccncc3)ccc2c1 [Compound T123, 2-(Pyridin-4-yl)quinoline]
- Brain Section Staining: fluorescence (AD brain sections): No fluorescence is detected at 100 uM

SMILES: CN(C)c1ccc(-c2ccc3ccccc3n2)cn1 [Compound T125, N,N-Dimethyl-5-(quinolin-2-yl)pyridin-2-amine]
- Brain Section Staining: tau (tau aggregates; Table 1 quinolines): staining shows strong binding to tau

SMILES: COc1ccc2nc(-c3ccc(N(C)C)cc3)ccc2c1 [Compound T139, 4-(6-Methoxyquinolin-2-yl)-N,N-dimethylaniline]
- Brain Section Staining: Ab (amyloid) (Aβ plaques; Table 1 quinolines): binds to amyloid and Tau
- Brain Section Staining: tau (tau aggregates; Table 1 quinolines): binds to amyloid and Tau

SMILES: CNc1ccc(-c2ccc3cc(OCCF)ccc3n2)cc1.Cl.Cl [Compound T409]
- Brain Section Staining: Ab (amyloid) (Aβ plaques; Table 1 quinolines): binds to amyloid

SMILES: Cl.Cl.FCCNc1ccc(-c2ccc3ccccc3n2)cc1 [Compound T411, N-(2-Fluoroethyl)-4-(quinolin-2-yl)aniline dihydrochloride]
- Brain Section Staining: Ab (amyloid) (Aβ plaques; Table 1 quinolines): weakly binds to Ab
- Brain Section Staining: tau (tau aggregates; Table 1 quinolines): binds to tau

SMILES: [N-]=[N+]=NCCOCCOCCNc1ccc(-c2ccc3ccccc3n2)cc1 [Compound T412]
- Brain Section Staining: Ab (amyloid) (Aβ plaques; Table 1 quinolines): not to amyloid
- Brain Section Staining: tau (tau aggregates; Table 1 quinolines): binds to tau

SMILES: CN(C)c1ccc(/C=C/c2ccc3cc(F)ccc3n2)cc1 [Compound T429]
- Brain Section Staining: Ab (amyloid) (Aβ plaques; Table 1 quinolines): binds to Ab

SMILES: FCCOCCOCCNc1ccc(-c2ccc3ccccc3n2)cc1 [Compound T442]
- Brain Section Staining: Ab (amyloid) (Aβ plaques; Table 1 quinolines): binds to Tau and Ab
- Brain Section Staining: tau (tau aggregates; Table 1 quinolines): binds to Tau and Ab

SMILES: Nc1ccc(-c2ccc3ccccc3n2)cc1F [Compound T445, 2-Fluoro-4-(quinolin-2-yl) aniline]
- Brain Section Staining: tau (tau aggregates; Table 1 quinolines): binds to Tau

SMILES: CNc1ccc(C#Cc2nc3cc(OC)ccc3s2)cc1F [Compound T448]
- Brain Section Staining: Ab (amyloid) (Aβ plaques; Table 2 acetylenes): binds to Ab

SMILES: Cn1ccc2cc(-c3ccc4ccccc4n3)ccc21 [Compound T453, 2-(1-Methyl-1H-indol-5-yl)quinoline]
- Brain Section Staining: Ab (amyloid) (Aβ plaques; Table 1 quinolines): binds to Ab

SMILES: FCCCNc1ccc(C#Cc2ccc3ccccc3n2)cc1 [Compound T454, N-(3-Fluoropropyl)-4-(quinolin-2-ylethynyl)aniline]
- Brain Section Staining: Ab (amyloid) (Aβ plaques; Table 1 quinolines): binds to Ab
- Brain Section Staining: Ab (amyloid) (Aβ plaques; Table 2 acetylenes): binds to Ab

SMILES: Fc1ccc(-c2ccc3ccccc3n2)cn1 [Compound T455, 2-(6-Fluoropyridin-3-yl)quinoline]
- Brain Section Staining: fluorescence (AD brain sections): No fluorescence

SMILES: CNc1ccc(-c2ccc3ccccc3n2)cc1F [Compound T458]
- Brain Section Staining: Ab (amyloid) (Aβ plaques; Table 1 quinolines): binds to amyloid and tau
- Brain Section Staining: tau (tau aggregates; Table 1 quinolines): binds to amyloid and tau

SMILES: FCCCNc1ccc(C#Cc2nc3ccccc3[nH]2)cc1 [Compound T465, 4-((1H-Benzo[d]imidazol-2-yl)ethynyl)-N-(3-fluoropropyl)aniline]
- Brain Section Staining: Ab (amyloid) (Aβ plaques; Table 2 acetylenes): binds to tau and Ab
- Brain Section Staining: tau (tau aggregates; Table 2 acetylenes): binds to tau and Ab

SMILES: CNc1ccc(-c2cc(F)c3ccccc3n2)cc1 [Compound T466, 4-(4-fluoroquinolin-2-yl)-N-methylaniline]
- Brain Section Staining: Ab (amyloid) (Aβ plaques; Table 1 quinolines): binds to tau and amyloid
- Brain Section Staining: tau (tau aggregates; Table 1 quinolines): binds to tau and amyloid

SMILES: COc1ccc2nc(-c3ccc(N)c(F)c3)ccc2c1 [Compound T467, 2-Fluoro-4-(6-methoxyquinolin-2-yl)aniline]
- Brain Section Staining: Ab (amyloid) (Aβ plaques; Table 1 quinolines): binds to tau and amyloid
- Brain Section Staining: tau (tau aggregates; Table 1 quinolines): binds to tau and amyloid

SMILES: CN(C)c1ccc(/C=C/c2cnc3ccccc3n2)cc1 [Compound T475]
- Brain Section Staining: Ab (amyloid) (Aβ plaques; Table 1 quinolines): binds to Ab mostly

SMILES: CNc1ccc(-c2cnc3ccccc3c2)cc1 [Compound T477, N-Methyl-4-(quinolin-3-yl)aniline]
- Brain Section Staining: Ab (amyloid) (Aβ plaques; Table 1 quinolines): binds to Ab mostly

SMILES: CNc1ccc(-c2ccc3cc(OC)ccc3n2)cc1F.Cl.Cl [Compound T483, 2-Fluoro-4-(6-methoxyquinolin-2-yl)-N-methylaniline dihydrochloride]
- Brain Section Staining: tau (tau aggregates; Table 1 quinolines): Mostly binds to Tau

SMILES: CN(C)c1ccc(-c2cc(F)c3ccccc3n2)cc1 [Compound T484, 4-(4-Fluoroquinolin-2-yl)-N—N-dimethylaniline]
- Brain Section Staining: Ab (amyloid) (Aβ plaques; Table 1 quinolines): binds to Tau and Ab
- Brain Section Staining: tau (tau aggregates; Table 1 quinolines): binds to Tau

SMILES: Cn1cnc2ccc(-c3cc(F)c4ccccc4n3)cc21 [Compound T485, 4-Fluoro-2-(1-methyl-1H-benzo[d]imidazol-6-yl)quinoline 2,2,2-trifluoroacetate]
- Brain Section Staining: Ab (amyloid) (Aβ plaques; Table 1 quinolines): weakly binds to Ab

SMILES: FCCn1c(C#Cc2ccc3ccccc3n2)nc2ccccc21.O=C(O)C(F)(F)F [Compound T496]
- Brain Section Staining: Ab (amyloid) (Aβ plaques; Table 2 acetylenes): Weakly binds to Ab

SMILES: COc1ccc2nc(-c3ccc(N4CCN(CCCF)CC4)cc3)ccc2c1 [Compound T499, 2-(4-(4-(3-Fluoropropyl)piperazin-1-yl)phenyl)-6-methoxyquinoline]
- binding of fluorescent compound to AD brain sections confirmed by immunostaining with tau or Aβ antibodies (AD brain sections): binding

SMILES: CNc1ccc(-c2cc3ccccc3cn2)cc1.Cl [Compound T501, 4-(Isoquinolin-3-yl)-N-methylaniline]
- Brain Section Staining: fluorescence (AD brain sections): No fluorescence

SMILES: Nc1ccc(-c2ccnc3nc4ccccc4n23)cc1 [Compound T520, 4-(Benzo[4,5]imidazo[1,2-a]pyrimidin-4-yl)aniline]
- binding of fluorescent compound to AD brain sections confirmed by immunostaining with tau or Aβ antibodies (AD brain sections): binding

SMILES: CNc1ccc(-c2ccn3c(n2)nc2ccccc23)cc1.O=C(O)C(F)(F)F.O=C(O)C(F)(F)F [Compound T522, 4-(Benzo[4,5]imidazo[1,2-a]pyrimidin-2-yl)-N-methylaniline bistrifluoracetate]
- binding of fluorescent compound to AD brain sections confirmed by immunostaining with tau or Aβ antibodies (AD brain sections): total binding

SMILES: FCCOCCOCCNc1ccc(-c2ccc3ccccc3n2)cn1 [Compound T525, N-(2-(2-(2-Fluoroethoxy)ethoxy)ethyl)-5-(quinolin-2-yl)pyridin-2-amine]
- binding of fluorescent compound to AD brain sections confirmed by immunostaining with tau or Aβ antibodies (AD brain sections): binding

SMILES: FCCOCCOCCn1c(C#Cc2cnc3[nH]ccc3c2)nc2ccccc21.O=C(O)C(F)(F)F [Compound T527]
- binding of fluorescent compound to AD brain sections confirmed by immunostaining with tau or Aβ antibodies (AD brain sections): binding

SMILES: CN(C)c1ccc(-c2ccc3cc(O)ccc3n2)cc1 [Compound T531]
- Brain Section Staining: tau (tau aggregates; Table 1 quinolines): Binds to Tau

SMILES: FCCOCCOCCOc1ccc2nc(-c3ccc(N4CCOCC4)nc3)ccc2c1 [Compound T539, 4-(5-(6-(2-(2-(2-Fluoroethoxy)ethoxy)ethoxy)quinolin-2-yl)pyridin-2-yl)morpholine]
- binding of fluorescent compound to AD brain sections confirmed by immunostaining with tau or Aβ antibodies (AD brain sections): binding

SMILES: Cn1c(C#Cc2ccc(NCCCF)cc2)nc2ccccc21 [Compound T540, N-(3-Fluoropropyl)-4-((1-methyl-1H-benzo[d]imidazol-2-yl)ethynyl)aniline]
- binding of fluorescent compound to AD brain sections confirmed by immunostaining with tau or Aβ antibodies (AD brain sections): binding

SMILES: CNc1ccc(C#Cc2nc3ccccc3n2CCOCCOCCF)cc1.O=C(O)C(F)(F)F [Compound T541]
- binding of fluorescent compound to AD brain sections confirmed by immunostaining with tau or Aβ antibodies (AD brain sections): binding

SMILES: FCCCNc1ccc(-c2ccn3c(n2)nc2ccccc23)cc1 [Compound T542, 4-(Benzo[4,5]imidazo[1,2-a]pyrimidin-2-yl)-N-(3-fluoropropyl)aniline]
- binding of fluorescent compound to AD brain sections confirmed by immunostaining with tau or Aβ antibodies (AD brain sections): binding

SMILES: CN(C)c1ccc(-c2ccc(-c3nc4ccccc4n3CCF)cc2)cc1 [Compound T543, 4′-(1-(2-Fluoroethyl)-1H-benzo[d]imidazol-2-yl)-N,N-dimethyl-[1,1′-biphenyl]-4-amine]
- Brain Section Staining: Aβ (Aβ plaques; Table 3 benzimidazoles, qualitative rating 1+ to 4+ / + to +++): no binding
- binding of fluorescent compound to AD brain sections confirmed by immunostaining with tau or Aβ antibodies (AD brain sections): binding

SMILES: FCCCNc1ccc(-c2ccnc3nc4ccccc4n23)cc1 [Compound T544, 4-(Benzo[4,5]imidazo[1,2-a]pyrimidin-4-yl)-N-(3-fluoropropyl)aniline]
- binding of fluorescent compound to AD brain sections confirmed by immunostaining with tau or Aβ antibodies (AD brain sections): binding

SMILES: FCCOCCOCCOc1ccc2nc(-c3ccc(N4CCOCC4)cc3)ccc2c1 [Compound T549, 4-(4-(6-(2-(2-(2-Fluoroethoxy)ethoxy)ethoxy)quinolin-2-yl)phenyl)morpholine]
- Brain Section Staining: tau (tau aggregates; Table 1 quinolines): Binds to Tau

SMILES: CN1CCN(c2ccc(-c3ccc4cc(OCCOCCOCCF)ccc4n3)cc2)CC1 [Compound T550, 6-(2-(2-(2-Fluoroethoxy)ethoxy)ethoxy)-2-(4-(4-methylpiperazin-1-yl)phenyl)quinoline]
- Brain Section Staining: tau (tau aggregates; Table 1 quinolines): Binds to Tau

SMILES: CN1CCN(c2ccc(-c3cc(F)c4ccccc4n3)cc2)CC1 [Compound T559]
- Brain Section Staining: fluorescence (AD brain sections): No fluorescence

SMILES: Fc1ccc(C#Cc2ccc3scnc3c2)cn1 [T114/ W313]
- Brain Section Staining: Ab (amyloid) (Aβ plaques; Table 2 acetylenes): stains amyloid and tau
- Brain Section Staining: tau (tau aggregates; Table 2 acetylenes): stains amyloid and tau

SMILES: CNc1ccc(C#Cc2nc3ccc(O)cc3s2)cc1F [T118/ W366, 2-((3-fluoro-4-(methylamino)phenyl)ethynyl)benzo[d]thiazol-6-ol]
- Brain Section Staining: Ab (amyloid) (Aβ plaques; Table 2 acetylenes): binds to Ab
